Patent US9029545B2, “Thienopyridine NOX2 inhibitors” (GlaxoSmithKline Intellectual Property Limited, priority 2009, dated 2015)

Biological target: T1, NOX2 in differentiated HL60 cells (Homo sapiens, UniProt P04839)
T1 construct: Differentiation of HL-60 cells to granulocytes increases NOX2 expression; endogenous in cells; host or cells: HL60 cells differentiated to neutrophil-like cells with 1.3% DMSO and stimulated with PMA
T1 sequence (P04839 1-570): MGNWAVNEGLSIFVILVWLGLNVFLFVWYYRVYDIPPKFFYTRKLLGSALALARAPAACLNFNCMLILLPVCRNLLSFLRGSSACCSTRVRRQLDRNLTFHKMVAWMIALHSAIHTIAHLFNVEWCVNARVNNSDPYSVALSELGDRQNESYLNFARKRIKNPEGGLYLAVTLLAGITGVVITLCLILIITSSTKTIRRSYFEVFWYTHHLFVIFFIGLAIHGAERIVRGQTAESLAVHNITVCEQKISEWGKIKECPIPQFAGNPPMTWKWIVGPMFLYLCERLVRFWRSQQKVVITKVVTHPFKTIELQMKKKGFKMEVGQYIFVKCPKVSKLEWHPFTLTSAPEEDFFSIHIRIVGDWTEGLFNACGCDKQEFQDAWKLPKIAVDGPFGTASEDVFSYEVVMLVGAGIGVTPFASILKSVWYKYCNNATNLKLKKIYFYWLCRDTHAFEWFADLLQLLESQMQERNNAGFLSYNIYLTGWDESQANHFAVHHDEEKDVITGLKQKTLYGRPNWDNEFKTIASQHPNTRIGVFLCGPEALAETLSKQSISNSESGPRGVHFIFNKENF
T1 sequence (P13498 1-195 partner): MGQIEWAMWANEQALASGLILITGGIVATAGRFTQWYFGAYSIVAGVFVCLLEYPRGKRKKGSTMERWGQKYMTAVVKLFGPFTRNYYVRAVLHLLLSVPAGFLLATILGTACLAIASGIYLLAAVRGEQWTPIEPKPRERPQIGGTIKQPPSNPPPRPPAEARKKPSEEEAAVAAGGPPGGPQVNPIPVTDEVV
Assay: HL60 cell-based assays (Assay 1 Oxyburst green BSA fluorescence, Assay 2 L-012 luminescence); result stated for at least one of them
Settings: PMA-stimulated superoxide production in differentiated HL60 cells; at least one of Oxyburst and L012 assays; read-out: pIC50 in at least one of the HL60 assays (converted)
Experimental: In the cell-based assay, superoxide production by NOX2 was measured in differentiated HL60 cells, a human myelomonocytic leukemia cell line, using either Oxyburst (Assay1) or L012 (Assay2). Differentiation of HL-60 cells to granulocytes increases NOX2 expression. The phorbol 12-myristate 13-acetate (PMA) was used to stimulate the production of superoxide in HL60 cells by activating protein kinase C, which then activated the NADPH oxidase (NOX) enzymes. Inhibition of NOX2 enzyme was detected by the reversal of fluorescence signal (Assay1) or luminescence signal (Assay2). The control inhibitor used was diphenyleneiodonium chloride (DPI), a […] inhibitor capable of non-selectively inhibiting superoxide produced by NOX enzymes.
Assay 1: in this high-throughput screening assay, oxyburst green bovine serum albumin (BSA) was used to detect superoxide production in HL60 cells. Oxidation of Oxyburst green BSA by hydrogen peroxide as a result of the activation of NOX2 by PMA. Oxyburst green BSA fluorescence was measured at excitation 485 nm and emission 530 nm.
Assay 2: in this assay, a chemiluminescence probe, L-012 was used to detect superoxide production in HL60 cells. L-012 reacted with various types of reactive oxygen species generated by PMA-activated HL60 cells. Luminescence was measured using Tecan Infinite 500.
The HL60 cells were differentiated into neutrophil-like cells by adding 1.3% DMSO in the media for 3-7 days (Hua, J et al. (2000) Journal of Leukocyte Biology. 68:216-224). Iscove's Modified Dulbecco's Media (IMDM) with L-Glutamine and 25 mM HEPES buffer, Fetal Bovine Serum (FBS), Penicillin/Streptomycin, Oxyburst Green BSA, PBS, and HBSS buffer with Calcium Chloride and Magnesium Chloride were purchased from Invitrogen (Catalog #s: 12440-061, 10500-064, 15140-163, O-13291, 14190-250, and 14025-134 respectively). Phorbol 12-myristate 13-acetate (PMA), glucose, and CHAPS were purchased from Sigma (Catalog #s: 79346, D-9434, and C5070 respectively). Diphenyleneiodonium chloride (DPI) was purchased from Toronto Research Chemicals (Catalog #: D491500). L-012 was purchased from Wako Chemical (Catalog #: 120-04891). Dimethyl sulfoxide (DMSO) was purchased EMD Chemicals (VWR Catalog #: MX1456-1). Multidrop combi was purchased from Thermo Electron Corporation (Waltham, Mass., USA). Hummingbird nanoliter liquid dispenser was purchased from Genomics Solution (Ann Arbor, Mich., USA). 384 well low-volume plates and polypropylene 384 well clear plates were purchased from Greiner (Catalog #: 784076 and 781280 respectively). 96 well plate and 384 well plate black assay plates were purchased from Greiner (Catalog #: 655094 and 781098). 96 well plate for compound serial dilution was purchased from Corning (Catalog #: 9017). Acquest or Analyst fluorescence plate reader was purchased from LJL Biosystems/Molecular Devices (California, USA). Tecan Infinite 500 was purchased from Tecan (Switzerland).
Media for HL60 cells were kept at 4° C. for storage and were warmed to 37° C. in a water bath before use. The media components were IMDM media with 20% FBS and 1% Penicillin/Streptomycin.
Buffer to be used for compound addition and compound dilution consisted of HBSS buffer with 0.1% glucose.
Buffer to be used for cells consisted of HBSS buffer with 0.1% glucose and 0.01% CHAPS.
HL60 cells were thawed and resuspended in Cells media. The cells were centrifuged at 1200 rpm for 8 minutes. Media was aspirated and the cells were resuspended in Cells buffer. The cells were counted and resuspended to 1×10^6 cells/mL.
Full inhibition controls were dispensed using 100 nL/well of 1 mM DPI in DMSO to column 18 of a 384 well plate. Compounds were dispensed using 100 nL/well. Full activity controls were dispensed using 100 nL/well of 4 uM PMA in DMSO. Oxyburst Green BSA was added to cell solution at 10 ug/mL. Using the Multidrop, 10 uL cell solution was added to the entire assay plate. The assay plate was incubated at room temperature for 100 minutes. […]

Row | SMILES | IC50
1 | Cc1cc(NS(=O)(=O)c2cccc(Cl)c2)c2c(-c3ccc(Cl)c(Cl)c3)c(C)sc2n1 [Example 20, 3-Chloro-N-[3-(3,4-dichlorophenyl)-2,6-dimethylthieno[2,3-b]pyridin-4-yl]benzenesulfonamide] | < 100 µM
2 | COc1cccc(-c2c(-c3cn[nH]c3)sc3nc(C)cc(NS(=O)(=O)c4cccc(Cl)c4)c23)c1 [Example 58, 3-Chloro-N-[6-methyl-3-[3-(methyloxy)phenyl]-2-(1H-pyrazol-4-yl)thieno[2,3-b]pyridin-4-yl]benzenesulfonamide] | < 100 µM
